We go through four compounds from patent US12545686B2, “Polymorphic forms of (s)-n-(3-bromo-2-fluorophenyl)-7-((4-methylpiperazin-1-yl)methyl)-7,8-dihydro-[1,4]dioxino[2,3-g]quinazolin-4-amine as EGFR inhibitors” (ERASCA, INC., priority 2021, dated 2026).

Values after ≈ are worked out from the molar mass of the structure shown.

What all share (format): physicochemical
Data set [1] is described as follows: Dynamic vapor sorption (DVS), with PXRD and TG-FTIR of the post-DVS sample. Particulars: for Solid form of the sample recovered post-DVS (PXRD): PXRD after DVS; for Water content of the post-DVS sample by TG-FTIR: sample recovered at end of DVS test; for Total water content change during the DVS cycles: wet sample used. As to the method: Dynamic vapor sorption: DVS measurements were performed with an SPS11-100n “Sorptions Prifsystem” from ProUmid (formerly “Projekt Messtechnik”), August-Nagel-Str. 23, 89079 Ulm (Germany). About 5-20 mg of sample was put into an aluminum sample pan. Humidity change rates of 5% per hour were used. The applied measurement program is visualized in the figure (blue trace). The presentations showing the effective water content are corrected.
The sample was placed on an aluminum or platinum holder on top of a microbalance and allowed to equilibrate at 50% RH before starting the pre-defined humidity programs. The measurement program is visualized in the figures of the report.
Classification of Hygroscopicity: The hygroscopicity was classified based on the mass gain at 85% RH relative to the initial mass as follows: deliquescent (sufficient water adsorbed to form a liquid), very hygroscopic (mass increase of ≥15%), hygroscopic (mass increase <15% but ≥2%), slightly hygroscopic (mass increase <2% but ≥0.2%), or non-hygroscopic (mass increase <0.2%).

A short description of data set [2]: Physical form stability on drying (PXRD). Here is the method: PowderX-ray diffraction: Powder X-ray diffraction was carried out with a Stoe Stadi P diffractometer equipped with a Mythen1K detector operating with Cu—Kα1 radiation. The measurements with this instrument were performed in transmission at a tube voltage of 40 kV and 40 mA tube power. A curved Ge monochromator allows testing with Cu—Kα1 radiation. The following parameters were set: 0.02° 20 step size, 12 s step time, 1.5-50.5° 20 scanning range, and 1° 20 detector step (detector mode in step scan). For a typical sample preparation about 10 mg of sample was placed between two acetate foils and mounted into a Stoe transmission sample holder. The sample was rotated during the measurement. All sample preparation and measurement was done in an ambient air atmosphere.
The first crystalline form of Compound (I) was designated as Form A and was obtained from a suspension equilibration experiment of the amorphous form in an isopropanol—water mixture. Form A was characterized by PXRD, TG-FTIR, H-NMR and DVS.
The PXRD pattern of Form A is depicted in FIG. 1. It should be noted that this sample was examined by PXRD before drying and that the undried sample is highly crystalline in nature. […] A TG-FTIR of the crystal Form A sample without much drying indicated a large mass loss of 36.6% that is attributable to water and isopropanol. Given the large mass loss it was concluded that drying was insufficient, and therefore the sample was further dried under vacuum at ambient temperature for about 23 hours and a new TG-FTIR was recorded.
As with Form A, Form B was examined by PXRD before drying was indicated to be highly crystalline in nature. […] A TG-FTIR was carried out for Form B without further drying and the thermogram indicated a large mass loss of 36.5% that is attributable to water; however no alcohol was detected. Given the large mass loss it was concluded that drying was insufficient, and the sample was subjected to further vacuum drying at ambient temperature for ten minutes and a new TG-FTIR was recorded. The new TG-FTIR thermogram indicated a water content of about 4.6%.

The nature of data set [3]: Approximate solubility by incremental addition of solvent. As to conditions: for solubility: thermodynamic from solid. As to the method: Solubility: Approximate solubilities were determined by incremental addition of solvent to about 10 mg the compound. If the substance was not dissolved by addition of a total of at least 10 ml solvent, the solubility is indicated as <1 mg/ml. Due to the experimental error inherent in this method, the solubility values are intended to be regarded as rough estimates and are to be used solely for the design of crystallization experiments.
Approximate solubilities were determined for amorphous Compound (I) at room temperature. These values were obtained by addition of small aliquots of solvent to small amounts of solid to achieve dissolution by stirring or agitation for a short period of time. […] Ratios for solvent mixtures correspond to volume ratios.
Initially the tests were carried out with the amorphous form Compound (I) and later on, after stable crystalline Form D (Example 7 below) was discovered, some of the tests were repeated with the crystalline form. […] Antisolvents are water, heptane, and TBME. […] Based on available data and further experiments diisopropylether, cyclohexane and methylcyclohexane can also be used as antisolvents.

Data set [4] can be described thus: Solubility tests in potential process solvent mixtures. As to conditions: thermodynamic from solid.
The nature of the next data set: Aqueous solubility. As to conditions: water, thermodynamic from solid, equilibration time 24 hours, pH 8.49.
Data set [5] is described as follows: pH dependent solubility tests in 0.1 M HCl, citrate buffer and USP phosphate buffers. Particulars: aqueous buffer, thermodynamic from solid. As to the method:
pH dependent solubility tests were conducted in 0.1 M HCl, in citrate buffer, and in USP phosphate buffers with nominal pH values of 6.8 and 7.4. Solubility tests at pH values below 5 failed because all compounds dissolved during the equilibration phase.

Regarding `CN1CCN(C[C@H]2COc3cc4ncnc(Nc5cccc(Br)c5F)c4cc3O2)CC1` [Form A, (S)—N-(3-bromo-2-fluorophenyl)-7-((4-methylpiperazin-1-yl)methyl)-7,8-dihydro-[1,4]dioxino[2,3-g]quinazolin-4-amine], in data set [1], the “Solid form of the sample recovered post-DVS (PXRD)” value (from here on “Solid form … (PXRD)”) is on record as “Form A was retained” and the “Water uptake above 50% r.h. in DVS” value is reported as “just small amounts of water”. Further, in data set [1] (below 50% r.h.), the “Water lost below 50% r.h. during the DVS cycles” value is reported as “about 8%”. The “Water content change over the whole range of relative humidity” value in data set [1] (from 0% to 95% r.h., roughly three waters per Compound (I)) is reported as approximately 10%. Besides, the Physical form stability entry in data set [2] is given as “poor physical form stability”. Also, in data set [2] (dried under vacuum at ambient temperature for about 23 hours), the “PXRD of the dried sample” value is listed as “essentially amorphous material”. In data set [2] (drying of highly crystalline, solvent-rich samples), the “Effect of drying on crystallinity” value is “significant loss of crystallinity”.

For the compound `CN1CCN(C[C@H]2COc3cc4ncnc(Nc5cccc(Br)c5F)c4cc3O2)CC1` [Form B, (S)—N-(3-bromo-2-fluorophenyl)-7-((4-methylpiperazin-1-yl)methyl)-7,8-dihydro-[1,4]dioxino[2,3-g]quinazolin-4-amine], in data set [1], the “Solid form … (PXRD)” value was “crystallinity was lost”, the “Water uptake above 50% r.h. in DVS” value is “just small amounts of water”, the “Water content of the post-DVS sample by TG-FTIR” value was “about 6.4%” and the “Total water content change during the DVS cycles” value is on record as “about 13%”. Also, the Physical form stability entry in data set [2] is recorded as “poor physical form stability”. For the same compound, the “Solid form after further drying” value in data set [2] (further drying beyond ten minutes vacuum) was “completely amorphous material”. The “PXRD of the dried sample” value in data set [2] (vacuum drying at ambient temperature for ten minutes) is recorded as “dramatic loss of crystallinity”.

On to `CN1CCN(C[C@H]2COc3cc4ncnc(Nc5cccc(Br)c5F)c4cc3O2)CC1` [Form C, (S)—N-(3-bromo-2-fluorophenyl)-7-((4-methylpiperazin-1-yl)methyl)-7,8-dihydro-[1,4]dioxino[2,3-g]quinazolin-4-amine], for which, in data set [1], the “Solid form … (PXRD)” value was “crystallinity was lost almost completely”, the “Water uptake above 50% r.h. in DVS” value was “just small amounts of water”, the “Water content of the post-DVS sample by TG-FTIR” value is given as “about 5.9%” and the “Total water content change during the DVS cycles” value was “about 14%”. The “Water content at the end of the DVS test” value in data set [1] (end of test) is “about 5.9%”. In addition, the Physical form stability result in data set [2] is reported as “poor physical form stability”.

The term solubility denotes the dissolved amount per volume that the medium holds. For `CN1CCN(C[C@H]2COc3cc4ncnc(Nc5cccc(Br)c5F)c4cc3O2)CC1` [Form D, (S)—N-(3-bromo-2-fluorophenyl)-7-((4-methylpiperazin-1-yl)methyl)-7,8-dihydro-[1,4]dioxino[2,3-g]quinazolin-4-amine], the solubility in data set [3] (1-methoxy-2-propanol, organic solvent or mixture, Propanol, 1-methoxy-2-, room temperature) was more than 200 mg/mL; in data set [3] (2-propanol/heptane (1/1, v/v), organic solvent or mixture, Propanol, 2-/heptane 1/1, room temperature), more than 20 mg/mL; in data set [3] (acetone/heptane (1/3, v/v), organic solvent or mixture, Acetone/heptane 1/3, room temperature), approximately 7 mg/mL (≈ 14.3 mM); in data set [3] (ethanol/n-heptane (1/3, v/v), organic solvent or mixture, Ethanol/n-heptane (1/3), room temperature), more than 107 mg/mL; in data set [3] (ethyl acetate/n-heptane (1/3, v/v), organic solvent or mixture, Ethyl acetate/n-heptane (1/3), room temperature), approximately 3 mg/mL (≈ 6.14 mM); in data set [3] (isobutyl alcohol, organic solvent or mixture, Isobutylalcohol, room temperature) it was more than 136 mg/mL. For the same compound, the solubility in data set [3] (isopropyl acetate, organic solvent or mixture, room temperature) is 90 to 180 mg/mL (≈ 184 to 369 mM); in data set [3] (water, room temperature), less than 1 mg/mL; in data set [4] (25 °C, aqueous with cosolvent or surfactant or cyclodextrin, Isopropanol - water 1:1), 20.3 mg/mL (≈ 41.6 mM); in data set [4] (25 °C, aqueous with cosolvent or surfactant or cyclodextrin, Isopropanol - water 1:3), 1.2 mg/mL (≈ 2.46 mM); in data set [4] (25 °C, organic solvent or mixture, Ethyl acetate - heptane 1:1) it was 23.1 mg/mL (≈ 47.3 mM); in data set [4] (ethyl acetate - heptane 1:3, 25 °C, organic solvent or mixture) it was 6.3 mg/mL (≈ 12.9 mM). The solubility in data set [5] (USP phosphate buffer (nominal pH 6.8), effective pH 6.97) came to 0.21 mg/mL (≈ 0.43 mM); in data set [5] (USP phosphate buffer (nominal pH 7.4), effective pH 7.47) it was 0.084 mg/mL (≈ 0.172 mM); in data set [5] (citrate buffer, effective pH 5.28), 13.1 mg/mL (≈ 26.8 mM); in data set [5] (citrate buffer, effective pH 6.11) it was 6.6 mg/mL (≈ 13.5 mM). Further, in data set [3] (in acetonitrile and ethyl acetate), the “Solubility compared with the amorphous form (in words)” value was “substantially lower”. In the data set “Aqueous solubility”, this compound displayed a solubility at 24 h of 0.066 mg/mL (≈ 0.135 mM). Also, the “Water uptake in DVS” value in data set [1] (at 95% relative humidity) is “up to 0.8%”. Moreover, the “Water release in DVS” value in data set [1] (humidity scanned back to 0% r.h.) is “lost all its water”.
